Measurements taken from US20120295845A1, “IMIDAZO-PYRAZOLES AS GPR119 INHIBITORS” (Pfizer Inc, priority 2009, published 2012).
Values joined by “and” are separate entries in the source; they are usually repeats but may differ in a detail not shown here. Equal entries are not always repeated.

Molecular target: T1, human GPR119 (Homo sapiens, UniProt Q8TDV5)
T1 construct: host or cells: HEK293-CRE beta-lactamase cells
T1 sequence (Q8TDV5 1-335): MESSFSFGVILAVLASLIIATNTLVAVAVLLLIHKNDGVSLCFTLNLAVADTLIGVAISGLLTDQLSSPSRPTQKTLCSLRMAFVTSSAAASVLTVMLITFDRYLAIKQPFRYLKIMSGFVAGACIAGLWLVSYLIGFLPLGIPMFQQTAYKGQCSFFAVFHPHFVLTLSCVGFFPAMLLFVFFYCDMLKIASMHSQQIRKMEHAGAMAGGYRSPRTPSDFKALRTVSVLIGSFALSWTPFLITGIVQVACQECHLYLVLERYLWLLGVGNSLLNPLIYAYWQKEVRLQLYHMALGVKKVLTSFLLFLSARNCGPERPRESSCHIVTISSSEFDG
Assay: GPR119 radioligand binding assay ([3H]-Compound A or [3H]-Compound B, membranes of HEK 293FT cells expressing hGPR119)
Conditions: Ki calculated from IC50 by the Cheng-Prusoff equation; one value per run
Experimental: HEK 293FT cells (Invitrogen, Carlsbad, Calif.) were grown in a shake flask in 293Freestyle medium (Invitrogen) supplemented with 50 microg/mL neomycin and 10 mM HEPES (37C, 8% carbon dioxide, shaking). The cells were centrifuged gently (approximately 500×g, 10 minutes) and the pellet resuspended in a mixture of Dulbecco's PBS (minus Mg++/Ca++) supplemented with 18% fetal bovine serum (Sigma Aldrich) and P1 virus such that the multiplicity of infection (MOI) was 10 and the final cell density was 1.3×10^6/mL (total volume 2.5 liters). The cells were transferred to a 5 liter Wave Bioreactor Wavebag (Wave Technologies, Mass.) and incubated for 4 hours at 27 degrees Celsius (17 rocks/min, 7 degrees platform angle); at the end of the incubation period, an equal volume (2.5 liters) of 293Freestyle medium supplemented with 30 mM sodium butyrate (Sigma Aldrich) was added (final concentration=15 mM), and the cells were grown for 20 hours (37 degrees Celsius, 8% CO2 [0.2 liters/min}, 25 rocks/minute, 7 degrees platform angle). Cells were harvested via centrifugation (3,000×g, 10 minutes), washed once on DPBS (minus Ca++/Mg++), resuspended in 0.25M sucrose, 25 mM HEPES, 0.5 mM EDTA, pH 7.4 and frozen at −80 degrees Celsius.
The frozen cells were thawed on ice and centrifuged at 700×g (1400 rpm) for 10 minutes at 4 degrees Celsius. The cell pellet was resuspended in 20 mL phosphate-buffered saline, and centrifuged at 1400 rpm for 10 minutes. The cell pellet was then resuspended in homogenization buffer (10 mM HEPES (Gibco #15630), pH 7.5, 1 mM EDTA (BioSolutions, #BIO260-15), 1 mM EGTA (Sigma, #E-4378), 0.01 mg/mL benzamidine (Sigma #B 6506), 0.01 mg/mL bacitracin (Sigma #B 0125), 0.005 mg/mL leupeptin (Sigma #L 8511), 0.005 mg/mL aprotinin (Sigma #A 1153)) and incubated on ice for 10 minutes. Cells were then lysed with 15 gentle strokes of a tight-fitting glass Dounce homogenizer. The homogenate was centrifuged at 1000×g (2200 rpm) for 10 minutes at 4 degrees Celsius. The supernatant was transferred into fresh centrifuge tubes on ice. The cell pellet was resuspended in homogenization buffer, and centrifuged again at 1000×g (2200 rpm) for 10 minutes at 4 degrees Celsius after which the supernatant was removed and the pellet resuspended in homogenization buffer. This process was repeated a third time, after which the supernatants were combined, Benzonase (Novagen # 71206) and MgC12 (Fluka #63020) were added to final concentrations of 1 U/mL and 6 mM, respectively, and incubated on ice for one hour. The solution was then centrifuged at 25,000×g (15000 rpm) for 20 minutes at 4 degrees Celsius, the supernatant was discarded, and the pellet was resuspended in fresh homogenization buffer (minus Benzonase and MgCl2). After repeating the 25,000×g centrifugation step, the final membrane pellet was resuspended in homogenization buffer and frozen at −80 degrees Celsius. The protein concentration was determined using the Pierce BCA protein assay kit (Pierce reagents A #23223 and B #23224).
Test compounds were serially diluted in 100% DMSO (J. T. Baker #922401). 2 microL of each dilution was added to appropriate wells of a 96-well plate (each concentration in triplicate). Unlabeled Compound A (or Compound B), at a final concentration of 10 microM, was used to determine non-specific binding. [^3H]-Compound A (or [^3H]-Compound B) was diluted in binding buffer (50 mM Tris-HCl, pH 7.5, (Sigma #T7443), 10 mM MgCl2 (Fluka 63020), 1 mM EDTA (BioSolutions #BIO260-15), 0.15% bovine serum albumin (Sigma #A7511), 0.01 mg/mL benzamidine (Sigma #B 6506), 0.01 mg/mL bacitracin (Sigma #B 0125), 0.005 mg/mL leupeptin (Sigma #L 8511), 0.005 mg/mL aprotinin (Sigma #A 1153)) to a concentration of 60 nM, and 100 microL added to all wells of 96-well plate (Nalge Nunc # 267245). Membranes expressing GPR119 were thawed and diluted to a final concentration of 20 μg/100 microL per well in Binding Buffer, and 100 microL of diluted membranes were added to each well of 96-well plate. […]

Row | Ki | SMILES
1 | 69 nM and 295 nM and 186 nM and 133 nM and 101 nM and 67 nM and 80 nM | Cc1c(O[C@H]2CCN(C(=O)OC3(C)CC3)C[C@H]2F)ncnc1N1CCn2nccc21 (single isomer, unassigned) [Example 6]
2 | 305 nM | Cc1c(OC2CCN(C(=O)OC3(C)CC3)CC2)ncnc1N1CCn2nccc21 [Example 2, 1-Methylcyclopropyl 4-{[6-(2,3-dihydro-1H-imidazo[1,2-b]pyrazol-1-yl)-5-methylpyrimidin-4-yl]oxy}piperidine-1-carboxylate]

More lines, now with the values behind:

Row | SMILES | Ki
3 | Cc1c(O[C@H]2CCN(C(=O)OC3(C)CC3)C[C@H]2F)ncnc1N1CCn2nccc21 (racemic) [Example 3, 1-Methylcyclopropyl (3R,4S)-4-{[6-(2,3-dihydro-1H-imidazo[1,2-b]pyrazol-1-yl)-5-methylpyrimidin-4-yl]oxy}-3-fluoropiperidine-1-carboxylate (racemic)] | 74 nM and 83 nM and 85 nM and 97 nM and 71 nM and 34 nM and 50 nM
4 | Cc1c(O[C@H]2CCN(C(=O)OC(C)C)C[C@H]2F)ncnc1N1CCn2nccc21 (racemic) [Example 4, Isopropyl (3R,4S)-4-{[6-(2,3-dihydro-1H-imidazo[1,2-b]pyrazol-1-yl)-5-methylpyrimidin-4-yl]oxy}-3-fluoropiperidine-1-carboxylate (racemic)] | 140 nM
5 | Cc1c(O[C@@H]2CCN(C(=O)OC3(C)CC3)C[C@@H]2F)ncnc1N1CCn2nccc21 (single isomer, unassigned) [Example 5] | 57 nM and 38 nM and 50 nM and 64 nM and 44 nM and 13 nM and 42 nM and 104 nM and 46 nM
6 | Cc1c(OC2CCN(C(=O)OC(C)C)CC2)ncnc1N1CCn2nccc21 [Example 1, Isopropyl 4-{[6-(2,3-dihydro-1H-imidazo[1,2-b]pyrazol-1-yl)-5-methylpyrimidin-4-yl]oxy}piperidine-1-carboxylate] | 514 nM and 442 nM and 446 nM and 524 nM
